Data reported in patent US11351194B2, “Method for proliferating neural progenitor cells and composition for treating neurological diseases containing proliferated neural progenitor cells” (COLLEGE OF MEDICINE POCHON CHA UNIVERSITY INDUSTRY-ACADEMIC …, priority 2014, dated 2022).

Columns and labels:
[1] = tested on: fetal neural progenitor cells; assay: Cytometry (cell number); conditions: 1 μg/ml, 7 days; compared to general condition; Ps<0.0001; FIG. 2B
Experimental: The resulting fetal neural progenitor cells were compared with those cultured under a general culture condition. Regarding the general culture condition, 20 ng/ml of each of bFGF and EGF and an α-supplement (2.5 mg insulin, 25 mg transferrin, 0.03 μM sodium selenite, 36.5 mg L-glutamine, and 0.75 g L-glucose) were added to 500 ml of a mixed medium of DMEM/F12 (1:1) containing 0.5 ml of Primocin, which is an antibiotic formulation, and then, the fetal neural progenitor cells were cultured therein (M1), or under a condition in which the B27 supplement was further added (M2).
The fetal neural progenitor cells were seeded on a 6-well plate at a density of 2×10^5 cells/well, cultured for 7 days, and then subjected to cytometry.

[2] = tested on: fetal neural progenitor cells; assay: Immunocytochemistry analysis using GFAP, Tuj1 and DAPI markers; type: cell-based, human; conditions: for expression of Tuj1 / expression of GFAP: in comparison with M1 and M2 (general culture condition); for expression of Tuj1: Ps<0.02, FIG. 4C; for expression of GFAP: Ps<0.04, FIG. 4B; for frequency of expression of both GFAP and Tuj1: FIG. 4D
Experimental: (§1) 20 ng/ml of each of bFGF and EGF (available from Peprotech, R&D system) and 10 ml of a B27 supplement (available from GIBCO) were added to 500 ml of a mixed medium of DMEM/F12 (1:1) containing 0.5 ml of Primocin, which is an antibiotic formulation, and then, the fetal neural progenitor cells were cultured under a condition in which 1 μg/ml of DL-alpha-tocopherol acetate (M3), 1 μg/ml of (t)-alpha-tocopherol (M4), or a combination thereof (M5) was added. The resulting fetal neural progenitor cells were compared with those cultured under a general culture condition. Regarding the general culture condition, 20 ng/ml of each of bFGF and EGF and an α-supplement (2.5 mg insulin, 25 mg transferrin, 0.03 μM sodium selenite, 36.5 mg L-glutamine, and 0.75 g L-glucose) were added to 500 ml of a mixed medium of DMEM/F12 (1:1) containing 0.5 ml of Primocin, which is an antibiotic formulation, and then, the fetal neural progenitor cells were cultured therein (M1), or under a condition in which the B27 supplement was further added (M2).
The neural progenitor cells were seeded on a 24-well plate at a density of 1×10^5 cells/well, cultured for 7 days, and then, subjected to immunocytochemistry analysis using GFAP, Tuj1, and DAPI markers.

[3] = tested on: fetal neural progenitor cells; assay: Immunocytochemistry analysis using Ki67, Nestin and DAPI markers; type: cell-based, human; conditions: for expression of Ki67: in comparison with M1 and M2 (general culture condition), Ps<0.0001, FIG. 3B; for frequency of expression of both Ki67 and Nestin: in comparison with general culture condition, FIG. 3C
Experimental: as §1
The fetal neural progenitor cells were seeded on a 24-well plate at a density of 1×10^5 cells/well, cultured for 7 days, and then, subjected to immunocytochemistry analysis using Ki67, Nestin, and DAPI markers.

[4] = tested on: fetal neural progenitor cells; assay: Cell viability by MTT assay; type: cell-based, human; conditions: 7 days
From the text: Human neural progenitor cells were isolated from 14 week-old human fetuses. Before obtaining the fetus samples, informed consents that had been sufficiently described to parents in advance were received. In addition, the sample collection and use thereof for research were approved by the Institutional Review Board of the CHA Hospital. Ventral midbrain tissues in the brain of a […] human fetus were isolated according to the method disclosed in Storch et al. 2001; and Milosevic et al. 2006, 2007, and then, dissociated into a single cell suspension by treating the ventral midbrain tissues in a solution containing 0.1 mg/ml of papain and 100 μg/ml of DNase at a temperature of 37° C. for about 30 minutes. The single cell suspension was washed with phosphate buffered saline (PBS), and then, incubated in 50 μg/ml of antipain at a temperature of 37° C. for 30 minutes. The resulting neural progenitor cells were plated, in a monolayer, at a density of 30,000 cells/cm^2, onto a culture dish that was pre-coated with 15 μg/ml of poly-L-omithine and 4 μg/ml of fibronectin, and then, cultured. The cultured fetus neural progenitor cells were seeded on a 96-well plate at a density of 1×10^4 cells/well, cultured for 7 days, and treated with an MTT reagent. Then, by measuring optical density thereof (at a wavelength of 570 nm), the cell viability was analyzed.

[5] = 7 days, in comparison with general culture condition, Ps<0.0001
[6] = 7 days, in comparison with general culture condition, Ps<0.0001, FIG. 4E
[7] = 7 days, printed comparator: cells cultured under normoxia, Ps≤0.0001, FIG. 3D
[8] = 1 μg/ml in medium, in comparison with general culture condition (M1, M2), Ps<0.02, FIG. 1
[9] = hypoxia (oxygen about 0.1% to about 10%) in comparison with normoxia, M3: P<0.009, M4: P<0.01, M5: P<0.001

CC(=O)Oc1c(C)c(C)c2c(c1C)CCC(C)(CCCC(C)CCCC(C)CCCC(C)C)O2 (racemic) [DL-alpha-tocopherol acetate]
number of fetal neural progenitor cells [1]: significantly increased number of fetal neural progenitor cells | expression of Tuj1 ([2]; 7 days): reduced expression of Tuj1 in a statistically significant manner | expression of GFAP ([2]; 7 days): reduced expression of GFAP in a statistically significant manner | frequency of expression of both GFAP and Tuj1 [2, 5]: lower frequency of expression of both GFAP and Tuj1 together | expression of Dapi [2, 6]: statistically significant increase in expression of Dapi | expression of Ki67 ([3]; 7 days): increased expression of Ki67 of significance | frequency of expression of both Ki67 and Nestin ([3]; 7 days, Ps≤0.0001): higher frequency of expression of both Ki67 and Nestin together in a statistically significant manner | expression of Dapi [3, 7]: statistically significant increase in the expression of Dapi | cell viability (MTT, optical density 570 nm) [4, 8]: higher cell viability that is statistically significant | cell viability (MTT, optical density 570 nm) [4, 9]: higher cell viability that is statistically significant

Cc1c(C)c2c(c(C)c1O)CC[C@@](C)(CCC[C@H](C)CCC[C@H](C)CCCC(C)C)O2 [alpha-tocopherol, (t)-alpha-tocopherol]
number of fetal neural progenitor cells [1]: significantly increased number of fetal neural progenitor cells | expression of Tuj1 ([2]; 7 days): reduced expression of Tuj1 in a statistically significant manner | expression of GFAP ([2]; 7 days): reduced expression of GFAP in a statistically significant manner | frequency of expression of both GFAP and Tuj1 [2, 5]: lower frequency of expression of both GFAP and Tuj1 together | expression of Dapi [2, 6]: statistically significant increase in expression of Dapi | expression of Dapi ([2]; hypoxia in comparison with normoxia, M4: P<0.006): statistically significant increase in the expression of Dapi | expression of Ki67 ([3]; 7 days): increased expression of Ki67 of significance | frequency of expression of both Ki67 and Nestin ([3]; 7 days, Ps≤0.0001): higher frequency of expression of both Ki67 and Nestin together in a statistically significant manner | expression of Dapi [3, 7]: statistically significant increase in the expression of Dapi | expression of Dapi ([3]; hypoxia compared with normoxia, M4 P<0.006, M5 P<0.0001): statistically significant increase in the expression of Dapi | cell viability (MTT, optical density 570 nm) [4, 8]: higher cell viability that is statistically significant | cell viability (MTT, optical density 570 nm) [4, 9]: higher cell viability that is statistically significant
